Data from patent US8609708B2 (Human BioMolecular Research Institute, priority 2003, dated 2013).
Read-outs that look alike come from different tables or passages of the source.

Key:
[1] = target: T1, human CYP2A6 (Homo sapiens (Human), UniProt P11509); assay: CYP2A6 mediated coumarin 7-hydroxylation inhibition; conditions: for IC50: read-out: CYP2A6 IC50
[2] = target: CYP3A4 relative to CYP2A6 (Homo sapiens (Human), UniProt P08684); assay: in vitro; conditions: human, pH 7.5, Selectivity Ratio: IC50 (Inhibition of CYP3A4)/IC50 (Inhibition of CYP2A6), Table 1
Description: (§1) To gain insight into the selectivity of the synthetic compounds, nicotine, nicotine related alkaloids and nicotine metabolites for inhibition of other CYPs, we examined the major CYP present in human liver (i.e., CYP 3A4). […] A typical incubation mixture ([…] ), 0.5 mM NADP^+, 2.0 mM G6P, 1 U of G6P dehydrogenase, […] inhibitor was added last as to minimize interaction with the protein. After mixing on ice, the reaction was initiated by the addition of substrate and incubated at 37° C. with shaking in air. Organic extracts were injected onto a Hitachi L-7100 system equipped with a Hitachi L-7400 UV detector. Separations were done with an Altex Ultrasphere ODS (4.6 mm×250 mm, 5 μm) column. The analytes were eluted with an isocratic solvent system consisting of water/acetonitrile/methanol (30:10:60, v/v/v) at a flow rate of 1.0 mL/min. […] Quantification of substrate and metabolite was determined from peak areas of the chromatogram and comparison with standard curves. IC50 values were determined as described below.
(§2) To measure CYP3A4 activity, testosterone 6-hydroxylation was determined.

[3] = target: CYP3A4 (Homo sapiens (Human), UniProt P08684); assay: CYP3A4 inhibition assay (testosterone 6-hydroxylation); conditions: read-out: CYP3A4 IC50; testosterone 6-hydroxylation
Description: as §1, §2

[4] = target: P450 2A6dH (Homo sapiens (Human), UniProt P11509, INS494HHHH); assay: Difference spectra of test compounds with N-terminal truncated CYP2A6; conditions: difference spectrum with truncated CYP2A6
[5] = target: T1, human CYP2A6; conditions: human, pH 7.5
[6] = target: CYP2B6 (Homo sapiens (Human), UniProt P20813); assay: CYP2B6 Vivid blue substrate O-dealkylation inhibition; assay type: biochemical; conditions: human CYP2B6 versus human CYP2A6
[7] = target: CYP2C9 (Homo sapiens (Human), UniProt P11712); assay: CYP2C9 Vivid blue substrate O-dealkylation inhibition; assay type: biochemical
[8] = target: CYP2C19 (Homo sapiens (Human), UniProt P33261); assay: CYP2C19 Vivid blue substrate O-dealkylation inhibition; assay type: biochemical
[9] = target: CYP2E1 (Homo sapiens (Human), UniProt P05181); assay: CYP2E1 Vivid blue substrate O-dealkylation inhibition; assay type: biochemical; conditions: human CYP2E1 versus human CYP2A6
[10] = target: CYP2D6 (Homo sapiens (Human), UniProt P10635); assay: CYP2D6 Vivid blue substrate O-dealkylation inhibition; assay type: biochemical; conditions: human CYP2D6 versus human CYP2A6
[11] = target: CYP2A13 (Homo sapiens (Human), UniProt Q16696); assay: Inhibition of human CYP2A13; conditions: for inhibition at 1 µM: human
CYP2A13, sequence (Q16696 whole entry): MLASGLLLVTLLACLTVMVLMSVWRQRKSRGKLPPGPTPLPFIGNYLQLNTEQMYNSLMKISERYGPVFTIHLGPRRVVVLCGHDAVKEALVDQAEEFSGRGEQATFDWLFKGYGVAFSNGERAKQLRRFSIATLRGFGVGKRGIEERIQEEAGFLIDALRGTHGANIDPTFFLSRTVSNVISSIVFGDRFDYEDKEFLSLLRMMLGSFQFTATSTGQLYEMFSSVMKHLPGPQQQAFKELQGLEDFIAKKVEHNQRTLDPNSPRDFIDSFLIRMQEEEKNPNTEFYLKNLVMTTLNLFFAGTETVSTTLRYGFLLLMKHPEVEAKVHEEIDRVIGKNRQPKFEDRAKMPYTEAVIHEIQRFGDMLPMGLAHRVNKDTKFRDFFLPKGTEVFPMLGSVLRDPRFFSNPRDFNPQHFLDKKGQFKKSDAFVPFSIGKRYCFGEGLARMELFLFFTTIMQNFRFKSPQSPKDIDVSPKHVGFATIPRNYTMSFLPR

T1 sequence (P11509 whole entry): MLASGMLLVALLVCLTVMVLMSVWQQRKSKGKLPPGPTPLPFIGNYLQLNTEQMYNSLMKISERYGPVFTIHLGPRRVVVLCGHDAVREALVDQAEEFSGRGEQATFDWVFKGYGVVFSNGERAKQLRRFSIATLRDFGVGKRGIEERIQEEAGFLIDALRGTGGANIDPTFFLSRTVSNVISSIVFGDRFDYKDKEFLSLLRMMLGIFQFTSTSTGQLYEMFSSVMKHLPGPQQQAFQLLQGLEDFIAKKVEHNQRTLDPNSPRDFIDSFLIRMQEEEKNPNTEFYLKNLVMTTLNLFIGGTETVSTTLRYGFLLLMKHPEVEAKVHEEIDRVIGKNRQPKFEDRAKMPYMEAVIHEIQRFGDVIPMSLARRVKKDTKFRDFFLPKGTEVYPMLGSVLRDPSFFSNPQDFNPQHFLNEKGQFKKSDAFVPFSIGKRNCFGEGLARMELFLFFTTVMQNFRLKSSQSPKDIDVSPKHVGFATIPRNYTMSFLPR
CYP2C9, sequence (P11712 whole entry): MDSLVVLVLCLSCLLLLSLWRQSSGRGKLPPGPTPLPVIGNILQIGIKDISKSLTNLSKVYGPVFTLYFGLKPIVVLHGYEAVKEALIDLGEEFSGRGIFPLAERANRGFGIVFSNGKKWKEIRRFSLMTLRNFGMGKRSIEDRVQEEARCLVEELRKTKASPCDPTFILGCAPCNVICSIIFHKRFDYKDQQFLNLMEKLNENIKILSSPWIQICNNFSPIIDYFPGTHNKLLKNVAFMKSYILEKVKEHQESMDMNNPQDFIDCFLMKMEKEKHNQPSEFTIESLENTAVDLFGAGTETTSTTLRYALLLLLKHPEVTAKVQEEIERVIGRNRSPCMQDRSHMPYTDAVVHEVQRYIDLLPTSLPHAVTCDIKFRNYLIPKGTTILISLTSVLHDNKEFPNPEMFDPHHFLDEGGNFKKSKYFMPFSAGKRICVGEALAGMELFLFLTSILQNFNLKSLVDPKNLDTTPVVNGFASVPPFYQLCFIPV
CYP2C19, sequence (P33261 whole entry): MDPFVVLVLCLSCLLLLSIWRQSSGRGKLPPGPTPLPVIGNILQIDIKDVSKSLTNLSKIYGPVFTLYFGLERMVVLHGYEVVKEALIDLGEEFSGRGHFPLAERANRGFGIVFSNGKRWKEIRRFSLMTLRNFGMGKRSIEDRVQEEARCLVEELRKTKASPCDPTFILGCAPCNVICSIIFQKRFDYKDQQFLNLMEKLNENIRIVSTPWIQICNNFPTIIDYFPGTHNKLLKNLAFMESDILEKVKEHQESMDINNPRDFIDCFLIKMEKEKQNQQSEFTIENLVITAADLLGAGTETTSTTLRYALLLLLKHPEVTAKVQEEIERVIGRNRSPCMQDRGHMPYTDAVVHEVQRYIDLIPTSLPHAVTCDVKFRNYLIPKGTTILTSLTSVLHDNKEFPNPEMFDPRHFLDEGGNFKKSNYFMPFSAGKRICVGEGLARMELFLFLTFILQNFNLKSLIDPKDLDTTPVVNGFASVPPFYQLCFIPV
P450 2A6dH, sequence (P11509 other isoform, or with tags, fused parts or gaps 1-28 replaced by MAKKTS/ins HHHH behind 494): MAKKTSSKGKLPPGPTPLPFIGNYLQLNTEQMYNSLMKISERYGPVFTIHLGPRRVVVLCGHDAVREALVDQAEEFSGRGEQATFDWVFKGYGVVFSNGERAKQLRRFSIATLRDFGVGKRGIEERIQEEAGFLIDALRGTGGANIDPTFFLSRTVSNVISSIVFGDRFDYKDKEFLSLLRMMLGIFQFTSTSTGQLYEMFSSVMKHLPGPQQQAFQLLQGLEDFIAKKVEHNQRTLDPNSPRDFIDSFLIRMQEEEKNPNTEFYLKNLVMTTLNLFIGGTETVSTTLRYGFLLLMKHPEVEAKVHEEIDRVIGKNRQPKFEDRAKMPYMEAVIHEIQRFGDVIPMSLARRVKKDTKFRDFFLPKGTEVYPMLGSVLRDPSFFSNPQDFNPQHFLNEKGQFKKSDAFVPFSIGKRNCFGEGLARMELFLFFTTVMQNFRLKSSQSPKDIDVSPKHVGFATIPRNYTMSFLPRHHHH
CYP2B6, sequence (P20813 whole entry): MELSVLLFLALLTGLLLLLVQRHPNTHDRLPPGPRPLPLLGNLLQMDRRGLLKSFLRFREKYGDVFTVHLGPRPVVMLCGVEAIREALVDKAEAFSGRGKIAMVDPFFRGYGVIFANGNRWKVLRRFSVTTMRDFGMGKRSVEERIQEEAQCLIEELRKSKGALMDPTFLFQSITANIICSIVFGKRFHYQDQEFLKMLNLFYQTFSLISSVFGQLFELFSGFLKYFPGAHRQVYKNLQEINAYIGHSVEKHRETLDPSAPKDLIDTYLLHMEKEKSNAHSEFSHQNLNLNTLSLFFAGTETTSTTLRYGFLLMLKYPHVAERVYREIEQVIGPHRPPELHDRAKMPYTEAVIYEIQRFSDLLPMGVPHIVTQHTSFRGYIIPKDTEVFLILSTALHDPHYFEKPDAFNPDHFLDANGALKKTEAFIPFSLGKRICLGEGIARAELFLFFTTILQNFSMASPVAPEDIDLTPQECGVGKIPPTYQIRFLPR
CYP2E1, sequence (P05181 whole entry): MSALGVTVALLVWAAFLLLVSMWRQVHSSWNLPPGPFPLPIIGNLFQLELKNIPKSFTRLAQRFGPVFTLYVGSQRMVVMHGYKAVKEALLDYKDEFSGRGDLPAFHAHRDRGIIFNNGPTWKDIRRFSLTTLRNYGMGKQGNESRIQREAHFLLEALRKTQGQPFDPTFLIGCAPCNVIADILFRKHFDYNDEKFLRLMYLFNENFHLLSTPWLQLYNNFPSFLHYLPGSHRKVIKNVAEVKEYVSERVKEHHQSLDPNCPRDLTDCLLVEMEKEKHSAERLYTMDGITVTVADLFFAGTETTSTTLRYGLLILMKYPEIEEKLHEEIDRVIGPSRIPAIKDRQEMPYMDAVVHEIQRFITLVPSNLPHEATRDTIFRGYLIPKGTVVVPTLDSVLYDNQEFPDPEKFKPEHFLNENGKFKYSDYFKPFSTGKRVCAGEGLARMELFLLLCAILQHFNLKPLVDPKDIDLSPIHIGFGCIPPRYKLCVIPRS
CYP3A4 relative to CYP2A6, sequence (P08684 whole entry): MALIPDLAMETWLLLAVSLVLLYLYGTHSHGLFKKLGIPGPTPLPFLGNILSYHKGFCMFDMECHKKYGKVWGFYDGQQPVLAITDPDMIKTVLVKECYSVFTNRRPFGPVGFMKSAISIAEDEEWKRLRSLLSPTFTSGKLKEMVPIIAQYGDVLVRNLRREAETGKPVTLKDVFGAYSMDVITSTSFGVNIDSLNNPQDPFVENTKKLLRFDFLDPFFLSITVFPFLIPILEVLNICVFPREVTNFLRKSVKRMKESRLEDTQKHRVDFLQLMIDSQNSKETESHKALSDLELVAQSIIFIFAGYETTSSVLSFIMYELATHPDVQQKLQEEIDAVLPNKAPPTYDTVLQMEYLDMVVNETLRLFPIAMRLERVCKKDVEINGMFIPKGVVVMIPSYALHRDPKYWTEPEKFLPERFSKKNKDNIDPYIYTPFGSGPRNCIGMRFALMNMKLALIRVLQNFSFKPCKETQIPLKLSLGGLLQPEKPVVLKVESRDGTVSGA
CYP3A4, sequence (P08684 whole entry): as above
CYP2D6, sequence (P10635 whole entry): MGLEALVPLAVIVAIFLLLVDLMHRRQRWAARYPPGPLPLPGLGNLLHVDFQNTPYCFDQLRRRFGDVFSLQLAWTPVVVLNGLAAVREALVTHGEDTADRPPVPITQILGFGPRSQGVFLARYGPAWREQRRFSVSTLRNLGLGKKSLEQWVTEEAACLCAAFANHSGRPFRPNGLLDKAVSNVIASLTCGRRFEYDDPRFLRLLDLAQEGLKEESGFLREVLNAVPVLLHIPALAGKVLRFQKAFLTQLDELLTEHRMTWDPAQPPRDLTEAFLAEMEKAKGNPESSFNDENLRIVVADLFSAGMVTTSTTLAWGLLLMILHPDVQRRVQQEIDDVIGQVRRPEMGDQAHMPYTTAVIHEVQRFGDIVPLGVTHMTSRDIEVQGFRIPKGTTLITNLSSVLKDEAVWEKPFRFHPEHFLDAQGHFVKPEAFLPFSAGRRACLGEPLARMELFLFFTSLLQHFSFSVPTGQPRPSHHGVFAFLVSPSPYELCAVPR

SMILES	IC50 ([1]; coumarin 7-hydroxylation) [nM]	inhibition at 1 µM [11] [%]	further results
Cc1ccc(-c2cccnc2)nc1 [Compound 46]	16500 ± 3800	–	selectivity ratio [2]: 5; IC50 [3]: 84200 ± 19500 nM
Cc1cncc(-c2sccc2C)c1 [Compound 55, 3-Methyl-5-(3-methylthiophen-2-yl)pyridine]	–	–	binding type [4]: type 1; Ki ([1]; coumarin 7-hydroxylation, apparent Ki from IC50 by Cheng-Prusoff): 11000 ± 1500 nM; fold decrease of CYP2A6 inhibitor potency ([1]; relative to compound 9): 110 fold
OCc1ccc(-c2cccnc2)s1 [Compound 61]	–	–	IC50 [5]: 33500 ± 4420 nM; Selectivity ratio (IC50 CYPX/IC50 CYP2A6) 2B6/2A6 [6]: 363; 2C9/2A6 selectivity ratio (IC50 CYPX/IC50 CYP2A6) [7]: > 400; Selectivity ratio (IC50 CYPX/IC50 CYP2A6) 2C9/2A6 ([7]; human CYP2C9 versus human CYP2A6): >400; 2C19/2A6 selectivity ratio (IC50 CYPX/IC50 CYP2A6) [8]: > 294; Selectivity ratio (IC50 CYPX/IC50 CYP2A6) 2C19/2A6 ([8]; human CYP2C19 versus human CYP2A6): >294; Selectivity ratio (IC50 CYPX/IC50 CYP2A6) 2E1/2A6 [9]: 58; Selectivity ratio (IC50 CYPX/IC50 CYP2A6) 2D6/2A6 [10]: 297
Nc1ccc(-c2cccnc2)s1 [TD-I-137]	3510 ± 280	0	–
Cc1ccsc1-c1ccc(F)nc1 [TD-II-077]	–	–	IC50 [5]: 1290 ± 140 nM; IC50 [11]: 1000 to 5000 nM
c1ccc(Cn2cnc(-c3cccnc3)c2)cc1 [TD-II-111]	1390 ± 190	17	–
c1cncc(-n2cncn2)c1 [TD-II-143]	4200 ± 800	18	–
CNCc1ccc(-c2cccnc2)o1 [TD-IV-099 34]	1600 ± 340	0	–
SCc1ccc(-c2cccnc2)o1 [TD-V-111 31]	< 1500	11	–
CSCc1ccc(-c2cccnc2)o1 [TD-VI-055 32]	1600 ± 190	16	–
NCc1cc(-c2cccnc2)no1 [TD-VIII-083]	740 ± 90	7	–

Continued, in another order:

IC50 ([1]; coumarin 7-hydroxylation) [nM]	inhibition at 1 µM [11] [%]	SMILES	further results
2410 ± 290	19	Clc1cc(-c2cccnc2)c(Cl)s1 [TD-III-081 38]	–
1820 ± 170	13	Clc1sccc1-c1cccnc1 [TD-III-083 37]	–
4670 ± 610	27	Clc1ccc(-c2cccnc2)s1 [TD-III-085 39]	IC50 [11]: 1000 to 5000 nM
1630 ± 650	19	Cc1ccsc1-c1cncc(-c2sccc2C)c1 [TD-IV-011 SSP 33]	IC50 [11]: 1000 to 5000 nM
